Laboratory results reported in ChEMBL document CHEMBL5104128, “The discovery of a non-competitive GOT1 inhibitor, hydralazine hydrochloride, via a coupling reaction-based high-throughput screening assay” (Bioorg Med Chem Lett, 2022).
pIC50, pKd, pKi: −log10 of the molar value. Structures can show the parent of a compound that is named as a salt. Values belong to the molecule of their own block, whether it stands above or below them.

Legend:
[1] = target: T1, Aspartate aminotransferase, cytoplasmic (Homo sapiens, UniProt P17174); test: Inhibition of GOT1 (unknown origin) using aspartic acid and alpha-ketoglutaric acid as substrates assessed as reduction in absorbance of NADH incubated for 20 mins in presence of MDH1 and NADH by HTS assay
T1 sequence (P17174 whole entry): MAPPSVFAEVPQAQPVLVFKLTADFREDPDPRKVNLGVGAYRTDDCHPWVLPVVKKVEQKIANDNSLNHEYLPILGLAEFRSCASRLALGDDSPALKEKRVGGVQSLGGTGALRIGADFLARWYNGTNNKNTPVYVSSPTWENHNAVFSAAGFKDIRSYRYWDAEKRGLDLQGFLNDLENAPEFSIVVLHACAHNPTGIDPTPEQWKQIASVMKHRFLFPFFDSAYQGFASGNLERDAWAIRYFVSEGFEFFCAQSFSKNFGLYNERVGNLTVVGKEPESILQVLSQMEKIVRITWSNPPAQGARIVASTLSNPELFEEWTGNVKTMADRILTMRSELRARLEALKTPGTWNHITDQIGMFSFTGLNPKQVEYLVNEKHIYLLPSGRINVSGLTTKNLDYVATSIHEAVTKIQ

[2] = target: T1, Aspartate aminotransferase, cytoplasmic; test: Inhibition of C-terminal His6-tagged human recombinant GOT1 expressed in Escherichia coli BL21 (DE3) cells using aspartic acid and alpha-ketoglutaric acid as substrates incubated in presence of MDH1 and NADH
[3] = target: T1, Aspartate aminotransferase, cytoplasmic; test: Inhibition of human recombinant GOT1 using aspartic acid and alpha-ketoglutaric acid as substrates incubated in presence of MDH1 and NADH
[4] = target: T1, Aspartate aminotransferase, cytoplasmic; test: Inhibition of GOT1 (unknown origin)
[5] = target: T1, Aspartate aminotransferase, cytoplasmic; test: Binding affinity to GOT1 (unknown origin) assessed as dissociation constant by microscale thermophoresis assay
[6] = target: T1, Aspartate aminotransferase, cytoplasmic; test: Noncompetitive inhibition of GOT1 (unknown origin) using aspartic acid as substrate assessed as inhibition constant by Michaelis-Menten equation based kinetic analysis
[7] = target: T1, Aspartate aminotransferase, cytoplasmic; test: Noncompetitive inhibition of GOT1 (unknown origin) using alpha-Ketoglutaric acid as substrate assessed as inhibition constant by Michaelis-Menten equation based kinetic analysis

pIC50 [1]: 4.18
Structure (SMILES): NNc1nnc(Cl)c2ccccc12

pIC50 [2]: 4.66
Structure (SMILES): COc1ccc(-c2ccc3cc(C(=O)O)ccc3c2)cc1C12CC3CC(CC(C3)C1)C2 [ADAPALENE]

pIC50 [3]: 5.53
Structure (SMILES): CC(C)=CCc1cc(/C=C2\OC(=O)C(c3cc(CC=C(C)C)c(O)cc3O)=C2O)ccc1O

pIC50 [4]: 5.10
Structure (SMILES): NC1Cc2ccccc2N(O)C1=O (centres undefined)

pIC50 [4]: 4.57
pKd [5]: 4.78
pKi [6]: 4.83
pKi [7]: 4.69
Structure (SMILES): NNc1nncc2ccccc12 [HYDRALAZINE HYDROCHLORIDE]

pIC50 [1]: < 4.00
Structure (SMILES): NNc1nnc(NN)c2ccccc12 [DIHYDRALAZINE]

pIC50 [1]: < 4.00
Structure (SMILES): Nc1cccnn1

pIC50 [1]: 4.53
Structure (SMILES): NNc1cccnn1

pIC50 [1]: 4.57
Structure (SMILES): NNc1nncc2ccccc12 [HYDRALAZINE]

pIC50 [4]: 5.27
Structure (SMILES): O=C1Cc2cc(CCN3CCN(c4nsc5ccccc45)CC3)c(Cl)cc2N1 [ZIPRASIDONE]

pIC50 [1]: < 4.00
Structure (SMILES): Nc1cccc2cnncc12
